Experiment [1] addresses B-Raf delta1-415 (Homo sapiens, UniProt P15056). Kind of experiment: B-Raf kinase inhibition (MAPH filter plate, 33P-ATP, MEK1 substrate). As to conditions: read-out: Biochemical IC50 B-Raf. From the text: We characterized the in vitro inhibitory activity against protein kinases of compounds of the present invention by determining their IC50 values (see Table 2).
Kinase: B-Raf delta1-415 (e.g., Upstate Cat. No. 14-530)
Reaction Temperature: room temperature
Assay Plate: 96 well U bottom plate (Greiner, 650161)
MultiScreen-PH Plate: 96 well MAPH Filter Plates (Millipore, MAPHNOB50)
Filter Washing Solution: 0.75% H3PO4
Szintilation Liquid: Supermix Liquid Szintillator (PerkinElmer, 1200-439)
Negative Control (C−): 100 mM EDTA, no Inhibitor
Positive Control (C+): no Inhibitor
Reaction Buffer: 20 mM Mops, pH 7.0 • 10 mM MgCl2 • 0.4 mM MnCl2 • 100 mM NaCl • 1 mM DTT • 0.01% NP40
Final Assay Concentrations:
Kinase: Kinase conc. yielding 50% substrate turnover as determined in titration experiment.
Adenosine 5′-[γ-^33P]triphosphate: 12.5 μCi/ml (Amersham Biosciences, BF1000)
Pipetting Sequence: • 1) Add 10 μl 4-fold concentrated substrate in 3-fold concentrated reaction buffer to each well of assay plate • 2) Add 10 μl 4-fold concentrated inhibitor in 4% DMSO in H2O to each well except to C− and C+ wells (starting point: final inhibitor concentration 10 μM; IC50 determination based on dilution series) • 3) Add 10 μl 4% DMSO in H2O to C− and C+ wells • 4) Add 10 μl 500 mM EDTA in H2O to C− wells • 5) Add 10 μl 50 μCi/ml adenosine 5′-[γ-^33P]triphosphate in H2O+4-fold cold ATP to each well • 6) Add 10 μl 4-fold concentrated kinase in reaction buffer to each well • 7) Incubate 1 hr at room temperature • 8) Add 10 μl 50 mM EDTA in H2O to each well except to C− wells • 9) Prepare MAPH plates by adding 200 μl 0.75% H3PO4 to each well • 10) Exhaust 0.75% H3PO4 using Millipore vacuum station • 11) Add 60 μl 0.75% H3PO4 to each well of MAPH filter plate • 12) Transfer 30 μl sample per well from assay plate to corresponding well of MAPH filter plate • 13) Incubate 30 min at room temperature • 14) Wash each well of MAPH filter plates 3× with 200 μl 0.75% H3PO4 using Millipore vacuum station • 15) Add 20 μl scintillation liquid to each well of MAPH filter plate • 16) Seal MAPH filter plate • 17) Store MAPH filter plate 30 min in darkness • 18) Quantify radioactivity using scintillation counter (MicroBeta, Perkin-Elmer)

Experiment [2] deals with HT-29 tumor cells. Briefly: Anti-proliferative activity, SRB assay. The class given is cell-based, human. As to conditions: Homo sapiens, HT-29, 72 h, 72 hours exposure, read-out: CELLULAR IC50 HT-29. The procedure: We observed the surprising finding that compounds of the invention were useful in inhibiting proliferation of HT-29 tumor cells (see Table 3).
3,000-15,000 cells/well were exposed to the test compounds at various concentrations appropriate to determine an IC50, for 72 hours, and cell proliferation was measured using the SRB assay according to Shekan et al (J Natl Cancer Inst (1990) 82, 1107-112) in order to estimate the IC50 values shown in Table 3. Briefly, cells were plated in 96 well dishes 24 hours prior to compound addition. The assay was terminated with the addition of cold TCA to a final concentration of 10% and the plates were incubated for one hour at 4° C. The plates were then washed 5 times with water and 100 μl of a Sulforhodamine B solution (4%) was added to each well. The plate was then incubated for 10 minutes at room temperature before removal of unbound dye by washing with 1% acetic acid. The bound dye was solubilized with 10 mM Trizma base and the absorbance read at OD570. Inhibitory activity of the compounds was calculated as % inhibition of cell proliferation compared to cells treated with the solvent (DMSO).
In general terms: The SRB assay estimates cell density from bound dye.

IC50 data for 22 compounds are collected here from US8518958B2, “Pyrido [2,3-D] pyrimidines and their use as kinase inhibitors” (Forma Therapeutics, Inc., priority 2006, dated 2013).

Sequence of B-Raf delta1-415 (P15056 416-766): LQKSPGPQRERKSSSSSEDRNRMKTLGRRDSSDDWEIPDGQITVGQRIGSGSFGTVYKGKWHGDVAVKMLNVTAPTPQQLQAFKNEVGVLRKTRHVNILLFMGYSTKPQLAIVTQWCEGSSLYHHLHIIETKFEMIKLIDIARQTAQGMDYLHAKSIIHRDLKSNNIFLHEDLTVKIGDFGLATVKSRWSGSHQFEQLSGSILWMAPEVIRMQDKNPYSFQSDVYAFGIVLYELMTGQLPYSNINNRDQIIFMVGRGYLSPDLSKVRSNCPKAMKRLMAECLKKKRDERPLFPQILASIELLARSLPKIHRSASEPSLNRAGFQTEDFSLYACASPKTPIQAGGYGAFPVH

One may read the IC50 as the midpoint of a concentration-inhibition curve. `COn1c(=O)c(-c2c(Cl)cccc2Cl)cc2cnc(Nc3csc(C(=O)N4CCN(C)CC4)c3)nc21` [Compound 142, 6-(2,6-Dichlorophenyl)-8-methoxy-2-(5-(4-methylpiperazino)carbonyl-thiophen-3-yl)-amino-pyrido[2,3-d]pyrimidin-7-one]: the IC50 in experiment [1] is less than 0.1 µM; in experiment [2] it was less than 1 µM.
Taken in the same sequence, the figures for `COn1c(=O)c(-c2c(Cl)cccc2Cl)cc2cnc(Nc3ccc(CN4CCC[C@H]4CO)cc3)nc21` [Compound 169, 6-(2,6-Dichlorophenyl)-2-(4-(2-(S)-hydroxymethyl-pyrrolidinomethyl)phenyl)-amino-8-methoxy-pyrido[2,3-d]pyrimidin-7-one] were less than 0.5 µM and less than 1 µM.
With `COCCN(C)C(=O)c1cc(Nc2ncc3cc(-c4c(Cl)cccc4Cl)c(=O)n(OCC4CC4)c3n2)cn1C` [Compound 176, 6-(2,6-Dichlorophenyl)-8-cyclopropylmethyloxy-2-(5-N-(2-methoxyethyl)-N-methyl-aminocarbonyl-1-methyl-pyrrol-3-yl)-amino-pyrido[2,3-d]pyrimidin-7-one], the 50% inhibitory concentration (IC50) was less than 0.5 µM in experiment [1] and less than 1 µM in experiment [2].
The matching figures for `COn1c(=O)c(-c2c(F)cccc2Cl)cc2cnc(Nc3ccc(N4CCN(S(C)(=O)=O)CC4)cc3)nc21` [Compound 223, 6-(2-Chloro-6-fluorophenyl)-8-methoxy-2-(4-(4-methylsulfonylpiperazino)phenyl)-amino-pyrido[2,3-d]pyrimidin-7-one]: less than 0.1 µM and less than 1 µM.
As to `COn1c(=O)c(-c2c(F)cccc2Cl)cc2cnc(Nc3cc(C(=O)N4CCNCC4)n(C)c3)nc21` [Compound 208, 6-(2-Chloro-6-fluorophenyl)-8-methoxy-2-(5-piperazinocarbonyl-1-methyl-pyrrol-3-yl)-amino-pyrido[2,3-d]pyrimidin-7-one], the IC50 was less than 0.1 µM in experiment [1] and less than 1 µM in experiment [2].
Regarding `COn1c(=O)c(-c2c(F)cccc2Cl)cc2cnc(Nc3cc(C(=O)N4CCOCC4)n(C)c3)nc21` [Compound 197, 6-(2-Chloro-6-fluorophenyl)-8-methoxy-2-(5-morpholinocarbonyl-1-methyl-pyrrol-3-yl)-amino-pyrido[2,3-d]pyrimidin-7-one], the IC50 is less than 0.5 µM in experiment [1] and less than 1 µM in experiment [2].
On to `COn1c(=O)c(-c2c(Cl)cccc2Cl)cc2cnc(Nc3ccncn3)nc21` [Compound 135, 6-(2,6-Dichlorophenyl)-8-methoxy-2-(pyrimidin-4-yl)-amino-pyrido[2,3-d]pyrimidin-7-one], for which the results for the IC50 in experiment [1] and in experiment [2] were less than 0.5 µM and less than 10 µM, respectively.
For `COn1c(=O)c(-c2c(Cl)cccc2Cl)cc2cnc(Nc3cccc(CS(=O)(=O)NCCO)c3)nc21` [Compound 156, 6-(2,6-Dichlorophenyl)-2-(3-((2-hydroxyethylamino)sulfonylmethyl)phenyl)-amino-8-methoxy-pyrido[2,3-d]pyrimidin-7-one], the values for the IC50 in experiment [1] and in experiment [2] were less than 0.5 µM and less than 1 µM, respectively.
The matching figures for `COn1c(=O)c(-c2c(F)cccc2Cl)cc2cnc(Nc3ccc(N4CCNCC4)c(C#N)c3)nc21` [Compound 213, 6-(2-Chloro-6-fluorophenyl)-8-methoxy-2-(3-cyano-4-piperazinophenyl)-amino-pyrido[2,3-d]pyrimidin-7-one]: less than 0.1 µM and less than 1 µM.
Taken in the same sequence, the figures for `CCCN1CCN(c2ccc(Nc3ncc4cc(-c5c(F)cccc5Cl)c(=O)n(OC)c4n3)cc2)CC1` [Compound 217, 6-(2-Chloro-6-fluorophenyl)-8-methoxy-2-(4-(4-propylpiperazino)phenyl)-amino-pyrido[2,3-d]pyrimidin-7-one] were less than 0.5 µM and less than 1 µM.
Take `COn1c(=O)c(-c2c(Cl)cccc2Cl)cc2cnc(Nc3cc(C(=O)NCCO)n(C)c3)nc21` [Compound 82, 6-(2,6-Dichlorophenyl)-2-(5-(2-hydroxyethyl)aminocarbonyl-1-methyl-pyrrol-3-yl)-amino-8-methoxy-pyrido[2,3-d]pyrimidin-7-one]: the IC50 was less than 0.5 µM in experiment [1] and less than 1 µM in experiment [2].
The matching figures for `COn1c(=O)c(-c2c(C)cccc2C)cc2cnc(Nc3cccnc3)nc21` [Compound 114, 6-(2,6-Dimethylphenyl)-8-methoxy-2-pyrid-3-ylamino-pyrido[2,3-d]pyrimidin-7-one]: less than 0.1 µM and less than 10 µM.
Consider `COn1c(=O)c(-c2c(Cl)cccc2Cl)cc2cnc(Nc3cc(C(=O)NC[C@H](O)CO)n(C)c3)nc21` [Compound 118, 6-(2,6-Dichlorophenyl)-2-(5-(2-(S)-2,3-dihydroxyethylamino)carbonyl-1-methyl-pyrrol-3-yl)-amino-8-methoxy-pyrido[2,3-d]pyrimidin-7-one], for which the figures for the IC50 in experiment [1] and in experiment [2] were less than 0.1 µM and less than 10 µM, respectively.
The matching figures for `COn1c(=O)c(-c2c(Cl)cccc2Cl)cc2cnc(Nc3ccc(NS(C)(=O)=O)cc3)nc21` [Compound 111, 6-(2,6-Dichlorophenyl)-8-methoxy-2-(4-methylsulfonylaminophenyl)-amino-pyrido[2,3-d]pyrimidin-7-one]: less than 0.1 µM and less than 1 µM.
The matching figures for `CN1CC[C@H](COn2c(=O)c(-c3c(F)cccc3Cl)cc3cnc(Nc4ccc(N5CCOCC5)cc4)nc32)C1` [Compound 212, 6-(2-Chloro-6-fluorophenyl)-8-(3-(S)-1-methyl-pyrrolidin-3-yl)methoxy-2-(4-morpholinophenyl)-amino-pyrido[2,3-d]pyrimidin-7-one]: less than 0.1 µM and less than 1 µM.
The matching figures for `O=c1c(-c2ccccc2Cl)cc2cnc(Nc3ccccc3)nc2n1O` [Compound 240, 6-(2-Chlorophenyl)-8-hydroxy-2-phenylamino-pyrido[2,3-d]pyrimidin-7-one]: more than 1 µM and less than 10 µM.
Regarding `COn1c(=O)c(-c2c(Cl)cccc2Cl)cc2cnc(Nc3cccc(O)c3)nc21` [Compound 219, 6-(2,6-Dichlorophenyl)-2-(3-hydroxyphenyl)-amino-8-methoxy-pyrido[2,3-d]pyrimidin-7-one], the 50% inhibitory concentration (IC50) in experiment [1] was less than 0.5 µM; in experiment [2], less than 10 µM.
The matching figures for `CCCN1CCN(c2ccc(Nc3ncc4cc(-c5c(Cl)cccc5Cl)c(=O)n(OCCOC)c4n3)cc2)CC1` [Compound 207, 2-(4-(4-propylpiperazino)phenyl)-amino-6-(2,6-dichlorophenyl)-8-(2-methoxyethyl)oxy-pyrido[2,3-d]pyrimidin-7-one]: less than 0.5 µM and less than 1 µM.
Taken in the same sequence, the figures for `COn1c(=O)c(-c2c(Cl)cccc2Cl)cc2cnc(Nc3ccc(N4CCCN(C)CC4)cc3)nc21` [Compound 221, 6-(2,6-Dichlorophenyl)-8-methoxy-2-(4-(4-methyl-1,4-diazacycloheptyl)phenyl-)-amino-pyrido[2,3-d]pyrimidin-7-one] were less than 0.1 µM and less than 1 µM.
The matching figures for `O=c1c(-c2c(F)cccc2Cl)cc2cnc(Nc3ccc(N4CCOCC4)cc3)nc2n1OCC1CCC1` [Compound 172]: less than 0.5 µM and less than 1 µM.
In the case of `COn1c(=O)c(-c2c(Cl)cccc2Cl)cc2cnc(Nc3cc(C(=O)NCCCN4CCCC4)n(C)c3)nc21` [Compound 95], the IC50 was less than 0.5 µM in experiment [1] and less than 1 µM in experiment [2].
The matching figures for `COn1c(=O)c(-c2c(Cl)cccc2Cl)cc2cnc(Nc3ccc(CC(=O)NCCN4CCCC4)cc3)nc21` [Compound 115, 6-(2,6-Dichlorophenyl)-8-methoxy-2-(4-(2-pyrrolidinoethylaminocarbon-ylmethyl)phenyl)-amino-pyrido[2,3-d]pyrimidin-7-one]: less than 0.5 µM and less than 1 µM.
